Measured values taken from patent US20240199647A1, “ANTI-VIRAL COMPOUNDS” (Aligos Therapeutics, Inc., priority 2022, published 2024).
Like-named read-outs stand apart in the source and are kept apart here.

Key:
SARS-Cov-2 3CLpro = SARS-Cov-2 3CLpro (Severe acute respiratory syndrome coronavirus 2, UniProt P0DTD1); test: biochemical; details: Table A, class symbols, read-out: SARS-Cov-2 (IC50)
[1] = system: human beta-coronavirus OC43; test: OC43 Coronavirus Assay in HeLa cells (antiviral, cytopathic effect, cell-titer-glo); type: cell-based; details: Betacoronavirus 1, OC43, HeLa, Table B, OC43 coronavirus in HeLa cells, read-out: EC50
[2] = system: SARS-CoV-2 B.1.1.7 lineage; test: microbe, parasite or virus in culture; type: cell-based; details: Severe acute respiratory syndrome coronavirus 2, Table C, SARS-CoV-2 B.1.1.7 in A549-dual_ACE2_TMPRSS2 cells, read-out: A549-dual_ACE2_TMPRSS2 (EC50)
in vitro = details: human
[3] = Cytotoxicity in HeLa cells without addition of OC43 virus (in parallel); details: human, HeLa cells, without OC43 virus

Row | Structure (SMILES) | IC50 (SARS-Cov-2 3CLpro) [nM] | EC50 ([1]; cells given as a bound) [nM] | EC50 ([2]; cells given as a bound) [nM] | CC50 (in vitro) [nM] | CC50 at 6 days [3] [nM] | EC50 ([1]; class symbols) [nM] | EC50 ([2]; class symbols) [nM]
1 | CN(C(=O)[C@H](CC1CC1)NC(=O)C(F)(F)F)[C@@H](CC1CC1)C(=O)N1C[C@]2(C[C@H]1C#N)C(=O)Nc1nccn12 [Example 31, (2S)—N-[(2S)-1-[(3R,5'S)-5′-cyano-2-oxo-1H-spiro[[1,3]diazolo[1,2-a]imidazole-3,3′-pyrrolidin]-1′-yl]-3-cyclopropyl-1-oxopropan-2-yl]-3-cyclopropyl-N-methyl-2-(2,2,2-trifluoroacetamido)propanamide] | 20 to 200 | > 10000 | > 1000 | > 1000 | > 10000 |  | 
2 | CC(C)C[C@@H](C(=O)N1C[C@]2(Cc3ccccc3NC2=O)C[C@H]1C#N)N(C)C(=O)[C@H](C)NC(=O)C(F)(F)F [Example 32, (S)—N—((S)-1-((3S,5S)-5-cyano-2′-oxo-1′,4′-dihydro-2′H-spiro[pyrrolidine-3,3′-quinolin]-1-yl)-4-methyl-1-oxopentan-2-yl)-N-methyl-2-(2,2,2-trifluoroacetamido)propanamide] | < 20 |  |  | > 1000 | > 10000 | 1000 to 10000 | 100 to 1000
3 | CN(C(=O)[C@H](CC1CC1)NC(=O)C(F)(F)F)[C@@H](CC1CC1)C(=O)N1C[C@@]2(C[C@H]1C#N)Oc1cc(C#N)cc(F)c1NC2=O [Example 34, (S)-3-cyclopropyl-N—((S)-3-cyclopropyl-1-((2R,5'S)-5′,7-dicyano-5-fluoro-3-oxo-3,4-dihydrospiro[benzo[b][1,4]oxazine-2,3′-pyrrolidin]-1′-yl)-1-oxopropan-2-yl)-N-methyl-2-(2,2,2-trifluoroacetamido)propanamide] | < 20 |  |  | > 1000 | > 10000 | 100 to 1000 | 100 to 1000
4 | CC(C)C[C@@H](C(=O)N1C[C@@]2(C[C@H]1C#N)Oc1cc(F)cc(F)c1NC2=O)N(C)C(=O)[C@H](CC1CC1)NC(=O)C(F)(F)F [Example 36, (S)—N—((S)-1-((2R,5'S)-5′-cyano-5,7-difluoro-3-oxo-3,4-dihydrospiro[benzo[b][1,4]oxazine-2,3′-pyrrolidin]-1′-yl)-4-methyl-1-oxopentan-2-yl)-3-cyclopropyl-N-methyl-2-(2,2,2-trifluoroacetamido)propanamide] | < 20 |  |  | > 1000 | > 10000 | < 100 | 100 to 1000
5 | C[C@H](NC(=O)C(F)(F)F)C(=O)N(C)[C@@H](CC1CC1)C(=O)N1C[C@@]2(C[C@H]1C#N)Oc1cc(F)cc(F)c1NC2=O [Example 37, (S)—N—((S)-1-((2R,5'S)-5′-cyano-5,7-difluoro-3-oxo-3,4-dihydrospiro[benzo[b][1,4]oxazine-2,3′-pyrrolidin]-1′-yl)-3-cyclopropyl-1-oxopropan-2-yl)-N-methyl-2-(2,2,2-trifluoroacetamido)propanamide] | < 20 |  |  | > 1000 | > 10000 | < 100 | 100 to 1000
6 | CC(C)C[C@@H](C(=O)N1C[C@]2(C[C@H]1C#N)C(=O)Nc1ccccc1N2C)N(C)C(=O)[C@H](C)NC(=O)C(F)(F)F [Example 42, (S)—N—((S)-1-((3R,5S)-5-cyano-1′-methyl-3′-oxo-3′,4′-dihydro-1′H-spiro[pyrrolidine-3,2′-quinoxalin]-1-yl)-4-methyl-1-oxopentan-2-yl)-N-methyl-2-(2,2,2-trifluoroacetamido) propanamide] | 20 to 200 | > 10000 |  | > 1000 | > 10000 |  | 100 to 1000
7 | CC(C)C[C@@H](C(=O)N1C[C@]2(C[C@H]1C#N)C(=O)Nc1ccccc1C2(F)F)N(C)C(=O)[C@H](C)NC(=O)C(F)(F)F [Example 43, (S)—N—((S)-1-((3R,5S)-5-cyano-4′,4′-difluoro-2′-oxo-1′,4′-dihydro-2′H-spiro[pyrrolidine-3,3′-quinolin]-1-yl)-4-methyl-1-oxopentan-2-yl)-N-methyl-2-(2,2,2-trifluoroacetamido)propanamide] | 20 to 200 |  |  | > 1000 | > 10000 | 1000 to 10000 | 100 to 1000
